Patent US9359376B2, “Substituted methylformyl reagents and method of using same to modify physicochemical and/or pharmacokinetic properties of compounds” (priority 2011, dated 2016)

Experiment: in vivo
Description: […] Blood was collected by serial bleeding at 0.16 h, 0.5 h, 1 h, 2 h, 4 h, 6 h, 8 h and 24 h in heparinized tubes. Blood samples were centrifuged at 10,000 rpm for 10 min. at 4° C. to obtain the plasma, which were aspirated into separate labeled tubes and stored at −80° C. 400 ng/ml of Verapmil in acetonitrile was used as the drug extraction solvent for extracting drug from plasma. Extraction solvent was added to plasma was vortexed and shaken on shaker for 10 minutes, centrifuged at 10000 rpm for 10 minutes at 4° C. Supernatant was kept for analysis.
Acetonitrile and plasma calibration curves were generated and percentage of drug recovery from plasma determined. Quantitative analysis was done by liquid chromatography tandem mass spectrometry using multiple reaction monitoring (API3000 LC-MS/MS). Cmax, Tmax, AUC and t1/2 were calculated using Graph Pad PRISM version 5.04.

CC(=O)O[C@H]1C(=O)[C@@]2(C)[C@H]([C@H](OC(=O)c3ccccc3)[C@@]3(O)CC1=C(C)[C@@H](OC(=O)[C@H](O)[C@@H](NC(=O)c1ccccc1)c1ccccc1)C3)[C@]1(OC(C)=O)CO[C@@H]1C[C@@H]2O [Compound 4114, (2α,4α,5β,7β,10β,13α)-4,10-bis(acetyloxy)-13-{[(2R,3S)-3-(benzoylamino)-2-hydroxy-3-phenylpropanoyl]oxy}-1,7-dihydroxy-9-oxo-5,20-epoxytax-11-en-2-yl benzoate]
AUC (female, Sprague Dawley, rat, plasma, po, 10 mg/kg): 0.186 µM·h

CCc1c2c(nc3ccc(OCOC(=O)c4ccc[n+](COC(=O)NC(C)C)c4)cc13)-c1cc3c(c(=O)n1C2)COC(=O)[C@]3(O)CC.[I-] [Compound 306, (S)-3-((((4,11-diethyl-4-hydroxy-3,14-dioxo-3,4,12,14-tetrahydro-1H-pyrano[3′,4′:6,7]indolizino[1,2-b]quinolin-9-yl)oxy)methoxy)carbonyl)-1-(((isopropylcarbamoyl)oxy)methyl)pyridin-1-ium iodide]
PK Value (AUC) (dosage 3.00 mpk, vehicle PEG400): BDL

CCc1c2c(nc3ccc(O)cc13)-c1cc3c(c(=O)n1C2)COC(=O)[C@]3(O)CC [Compound 4150, (S)-4,11-diethyl-4,9-dihydroxy-1H-pyrano[3′,4′:6,7]indolizino[1,2-b]quinoline-3,14(4H,12H)-dione]
PK Value (AUC) (rat, in vivo): BDL

CCc1c2c(nc3ccc(OCOC(=O)c4cccnc4)cc13)-c1cc3c(c(=O)n1C2)COC(=O)[C@]3(O)CC [Compound 305, (S)-((4,11-diethyl-4-hydroxy-3,14-dioxo-3,4,12,14-tetrahydro-1H-pyrano[3′,4′:6,7]indolizino[1,2-b]quinolin-9-yl)oxy)methyl nicotinate]
PK Value (AUC) (dosage 10.00 mpk, vehicle PEG400): BDL
